Read-outs that look alike come from different tables or passages of the source.

The format of series [1] is physicochemical. As for the experimental part: One method to evaluate the efficacy of a pesticide adjuvant is to measure its affect on the ability of the pesticide composition to resist wash-off from a surface. One skilled in the art will recognize that a pesticide which remains on the surface of a plant will be expected to have increased efficacy.
A suspension of the pesticide formulation was prepared by adding a premix of water and surfactant, with and without the polymer additives, followed by vigorous shaking of the mixtures by hand. Pieces of Parafilm™M laboratory film, a very soft, flexible, and hydrophobic film, were taped to plastic petrie dishes. The suspensions were sprayed with an automated sprayer as the petrie dishes with attached film were moved at a standard rate below the sprayer. The spray residues were allowed to dry, and a second application of spray was applied. One set of films was exposed, at an inclination of 45 degrees, to approximately 25 mm of water applied by a spray bar (equipped with TX-4 cone-type spray nozzles) that moved back and forth over the samples for a period of about 1 hour. The exposed films were allowed to dry. Another set of films was not exposed to water.
Infra-red spectra of the films were obtained by an Attenuated Total Reflection (ATR) technique. The films were pressed against a Zinc Selenide crystal that had been cleaned previously with methanol. Spectra were recorded with a Spectratech Allied Systems Fourier Transform Infra-Red Spectrometer, and stored in a computer. Peaks associated with pesticide residue were identified by inspection and peak areas were calculated by computer (Pesticide Peak Area, “PA”). A corresponding area for a Parafilm™ peak as similar as possible in peak location and size (in the same spectrum) was calculated (Film Peak Area, “FA”). […] A measure of the pesticide on the surface “P” was derived from the following calculation:
A relative measure of the amount of pesticide remaining after the above exposure to water was then derived from the following calculation: [formula]
Although the intensity of spectral peaks recorded with the ATR technique are very dependent on details of contact with the film, by obtaining a ratio of the pesticide peak to the film peak in the same spectral recording, different spectra can be compared with details of contact being compensated for, since they will have similar effects on the intensity of the pesticide absorption and the film absorption. The intensity of the pesticide peak relative to the film peak will depend on the degree of coverage of the film by the pesticide. To maximize coverage, the spraying was conducted twice. Furthermore, a wetting agent (surfactant) was included in the premix to promote wetting of the film by the spray droplets. Since exposure to water can result in re-distribution of the pesticide as well as wash-off of the pesticide, the measure of the amount remaining is only relative.
In all cases, a measured amount of pesticide was mixed with 270 grams of deionized water and 30 grams of 0.5% Silwet L-77 surfactant. This premix was divided into 50 gram portions. One portion was sprayed without adding polymer. For mixes containing polymer, 66.6 milligrams powder polymer or 1.32 g of a 5% solids dilution of the emulsion polymer were added to the 50 grams of premix.
TX-2 nozzle 12 inches above laboratory film.
58 psi (delivers 150 cc/minute).
Laboratory film moves at 1 mile/hour.
Fan nozzle 14 inches above laboratory film.
29 psi (Spray 15 cc with two passes over laboratory film at a rate to give 25 gallons/acre).

The test system of series [2] is Cercospora arachidicola (Early Leaf Spot). As to the kind of experiment: Peanut field test of disease control with mancozeb fungicide. Type of series: in vivo. As to the method:
(§1) For grapes, single plant plots with three replicates/treatment were treated at seven day intervals, with a total of seven applications. Treatments were water-based spray mixtures of mancozeb with or without polymer additives added to the water shortly before spraying. The mixtures were applied with a backpack sprayer using carbon dioxide pressure atomization (45 psi) with a boom having three D3 (Cone) nozzles, at a rate of 640 liters/hectare. The treatments included a control with no fungicide applied, a full rate of mancozeb without additive (2.8 kg active ingredient/hectare), and a half rate of mancozeb (1.4 kg active ingredient/hectare) with or without additives. The polymer additives were used at ⅓ kg. of additive solids/kg. of active ingredient. The mancozeb formulation was a wettable powder with 75% active ingredient.
(§2) Assessments of percent infection (of grape downy mildew caused by Plasmopara viticola) of foliage were made 7 days after treatment # 7 (7DAT#7). These assessments are tabulated below. Data were analyzed by Duncan's multiple range test, using P=0.05.
Peanuts were evaluated the same as grapes except that the plots were 1 meter×5 meter (1 row), with 4 replicates per treatment, there were 9 applications, the boom had five D2 (C45) nozzles, the full rate of mancozeb was 1.6 kg active ingredient/hectare, the final assessment was 23 days after treatment #9 (23DAT#9), and the predominant disease at this time was Cercospora arachidicola (Early Leaf Spot).
(§3) Three different solid redispersible powders were evaluated; Powders I and II from the previous example and powder V, an all acrylic copolymer (Drycryl™DP-2904 redispersible powder, a cement modifier of the Rohm and Haas Company). Three different emulsion polymers were evaluated for comparison; Emulsion IV from the previous example; Emulsion VI, a poly(vinylacetate) emulsion (Rovace™ 117 emulsion from the Rohm and Haas Company, used as a general purpose adhesive component); and Emulsion VII, an acrylic emulsion polymer (Rhoplex™ 2438 emulsion from the Rohm and Haas Company, a component of elastomeric wall coatings).
(§4) In several of the evaluations, a surfactant was added to the spray mixture. When used, the surfactant was a solid powder of 90% dioctyl sodium sulfosuccinate and 10% sodium benzoate (Aerosol® OTB surfactant from Cytec Company).

Series [3] deals with grape downy mildew caused by Plasmopara viticola. As to the kind of experiment: Grape field test of disease control with mancozeb fungicide. Type of series: in vivo. As for the experimental part: as §1, §2, §3, §4
Setting [4] is: Half rate, Emulsion IV, no surfactant.
[5] abbreviates: Half rate, Emulsion VI, no surfactant.
[6] abbreviates: Half rate, Emulsion VI, with surfactant.
Setting [7] is: Half rate, Emulsion VII, no surfactant.
Where [8] appears, read: Half rate, Powder I, no surfactant.
Setting [9] is: Half rate, Powder II, no surfactant.
Where [10] appears, read: Half rate, Powder II, with surfactant.
Setting [11] is: Half rate, Powder V, no surfactant.

`CNC(=O)Oc1cccc2ccccc12` [carbaryl]: the “% AI Retained After One Inch Spray-Bar Rain, M (mean)” value turned out to be 25% in series [1] (No Polymer); 40% in series [1] (with Emulsion IV); 31% in series [1] (with Powder I); 32% in series [1] (with Powder II); 27% in series [1] (with Powder III).

As for `CNC(=O)Oc1cccc2c1OC(C)(C)C2` [carbofuran], the “% AI Retained After One Inch Spray-Bar Rain, M (mean)” value in series [1] (No Polymer) is recorded as 3%; in series [1] (with Emulsion IV) it was 9%; in series [1] (with Powder I) it was 39%; in series [1] (with Powder II), 23%; in series [1] (with Powder III), 16%.

For `CN(C)C(CSC(N)=O)CSC(N)=O` [cartap], the “% AI Retained After One Inch Spray-Bar Rain, M (mean)” value in series [1] (No Polymer) was found to be 4%; in series [1] (with Emulsion IV) it was 3%; in series [1] (with Powder I) it was 5%; in series [1] (with Powder II) it was 8%; in series [1] (with Powder III), 8%.

Turning to `N#Cc1c(Cl)c(Cl)c(Cl)c(C#N)c1Cl` [chlorothalonil], the “% AI Retained After One Inch Spray-Bar Rain, M (mean)” value was 2% in series [1] (No Polymer); 12% in series [1] (with Emulsion IV); 16% in series [1] (with Powder I); 54% in series [1] (with Powder II); 4% in series [1] (with Powder III).

In the case of `[Cu+2].[OH-].[OH-]` [copper hydroxide], the “% AI Retained After One Inch Spray-Bar Rain, M (mean)” value is reported as 20% in series [1] (No Polymer); 11% in series [1] (with Emulsion IV); 22% in series [1] (with Powder I); 80% in series [1] (with Powder II); 21% in series [1] (with Powder III).

As to `OC(c1ccc(Cl)cc1)(c1ccc(Cl)cc1)C(Cl)(Cl)Cl` [dicofol], the “% AI Retained After One Inch Spray-Bar Rain, M (mean)” value is given as 18% in series [1] (No Polymer); 95% in series [1] (with Emulsion IV); 76% in series [1] (with Powder I); 62% in series [1] (with Powder II); 62% in series [1] (with Powder III).

As to `N#CC(CCc1ccc(Cl)cc1)(Cn1cncn1)c1ccccc1` (centres unmarked) [fenbuconazole], the “% AI Retained After One Inch Spray-Bar Rain, M (mean)” value in series [1] (No Polymer) came out at 9%; in series [1] (with Emulsion IV), 83%; in series [1] (with Powder I) it was 63%; in series [1] (with Powder II), 82%; in series [1] (with Powder III), 48%.

On to `CCCCC(C#N)(Cn1cncn1)c1ccc(Cl)cc1` (centres unmarked) [myclobutanil], for which the “% AI Retained After One Inch Spray-Bar Rain, M (mean)” value in series [1] (No Polymer) is given as 13%; in series [1] (with Emulsion IV), 74%; in series [1] (with Powder I), 56%; in series [1] (with Powder II), 77%; in series [1] (with Powder III), 44%.

Take `CCOc1cc(Oc2ccc(C(F)(F)F)cc2Cl)ccc1[N+](=O)[O-]` [oxyfluorfen]: the “% AI Retained After One Inch Spray-Bar Rain, M (mean)” value worked out at 17% in series [1] (No Polymer); 152% in series [1] (with Emulsion IV); 66% in series [1] (with Powder I); 137% in series [1] (with Powder II); 55% in series [1] (with Powder III).

Regarding `CCC(=O)Nc1ccc(Cl)c(Cl)c1` [propanil], the “% AI Retained After One Inch Spray-Bar Rain, M (mean)” value was found to be 9% in series [1] (No Polymer); 18% in series [1] (with Emulsion IV); 38% in series [1] (with Powder I); 27% in series [1] (with Powder II); 21% in series [1] (with Powder III).

For “dinitro-(1-methylheptyl) phenyl crotonate [dinocap]”, the “% AI Retained After One Inch Spray-Bar Rain, M (mean)” value in series [1] (No Polymer) came to 3%; in series [1] (with Emulsion IV), 40%; in series [1] (with Powder I), 49%; in series [1] (with Powder II) it was 47%; in series [1] (with Powder III), 19%.

Take mancozeb: the “Infection on Peanut 23DAT#9” value in series [2] (Full rate (1.6 kg active ingredient/hectare), no polymer additive, no surfactant) was 27.5 cd percent; in series [2] (setting [4]), 25.0 de percent; in series [2] (setting [5]) it was 22.5 ef percent; in series [2] (setting [6]) it was 13.8 h percent; in series [2] (setting [7]), 21.3 f percent; in series [2] (setting [8]), 23.8 ef percent. Further, the “Infection on Peanut 23DAT#9” value in series [2] (setting [9]) amounted to 32.5 c percent; in series [2] (setting [10]), 17.5 g percent; in series [2] (setting [11]) it was 22.5 ef percent; in series [2] (Half rate, no polymer additive, no surfactant), 41.3 b percent. Besides, the “Infection on Grape 7DAT#7” value in series [3] (Full rate (2.8 kg active ingredient/hectare), no polymer additive, no surfactant) was found to be 41.7 cd percent; in series [3] (Half rate (1.4 kg active ingredient/hectare), no polymer additive, no surfactant) it was 63.3 b percent; in series [3] (setting [4]), 38.3 de percent; in series [3] (setting [5]), 43.3 cd percent; in series [3] (setting [6]), 31.7 fg percent; in series [3] (setting [7]), 41.7 cd percent. Also, the “Infection on Grape 7DAT#7” value in series [3] (setting [8]) amounted to 46.7 c percent; in series [3] (setting [9]) it was 43.3 cd percent; in series [3] (setting [10]), 28.3 g percent; in series [3] (setting [11]) it was 46.7 c percent.

Turning to “manganese ethylenebisdithiocarbamate [maneb]”, the “% AI Retained After One Inch Spray-Bar Rain, M (mean)” value stood at 16% in series [1] (No Polymer); 103% in series [1] (with Emulsion IV); 76% in series [1] (with Powder I); 108% in series [1] (with Powder II); 86% in series [1] (with Powder III).
